Assay results reported in PMC6979384, “Characterization of the plant homeodomain (PHD) reader family for their histone tail interactions” (Epigenetics & Chromatin, 2020).

Experiments:
Assay in all cases: Histone peptide microarray
Format in all cases: binding, human
[1] = system: ING4; details: GST-tagged ING4; sheet Array Heatmap; each array performed twice, total n = 4
In short: (§1)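 Each reader, produced as a GST fusion and purified, was tested at 0.5 μM on synthetic histone peptides (293 in total) carrying single or combinatorial marks. Intensities averaged over four replicates.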

[2] = system: BPTF (PB); details: GST-tagged BPTF (PB = PHD + Bromodomain); sheet Array Heatmap; each array performed twice, total n = 4
In short: as §1

[3] = system: TAF3; details: GST-tagged TAF3; sheet Array Heatmap; each array performed twice, total n = 4
In short: as §1

[4] = system: KDM5B (1); details: GST-tagged KDM5B (1); sheet Array Heatmap; each array performed twice, total n = 4
In short: as §1

[5] = system: PHRF1 (RP); details: GST-tagged PHRF1 (RP); sheet Array Heatmap; each array performed twice, total n = 4
In short: as §1

[6] = system: ING5; details: GST-tagged ING5; sheet Array Heatmap; each array performed twice, total n = 4
In short: as §1

[7] = system: KDM5A (3); details: GST-tagged KDM5A (3); sheet Array Heatmap; each array performed twice, total n = 4
In short: as §1

[8] = system: ING2; details: GST-tagged ING2; sheet Array Heatmap; each array performed twice, total n = 4
In short: as §1

[9] = system: DIDO1; details: GST-tagged DIDO1; sheet Array Heatmap; each array performed twice, total n = 4
In short: as §1

[10] = system: ING1; details: GST-tagged ING1; sheet Array Heatmap; each array performed twice, total n = 4
In short: as §1

[11] = system: PHF13; details: GST-tagged PHF13; sheet Array Heatmap; each array performed twice, total n = 4
In short: as §1

[12] = system: ING3; details: GST-tagged ING3; sheet Array Heatmap; each array performed twice, total n = 4
In short: as §1

[13] = system: MORC3 (CW); details: GST-tagged MORC3 (CW = CW-type Zn-finger); sheet Array Heatmap; each array performed twice, total n = 4
In short: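 Binding read as mean relative signal from 4 replicates; microarray held 293 synthetic histone peptides with single or combinatorial PTMs. Each GST-tagged PHD reader was applied at 0.5 μM using the optimized Petell protocol.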

[14] = system: AIRE (PP); details: GST-tagged AIRE (PP); sheet Array Heatmap; each array performed twice, total n = 4
In short: as §1

[15] = system: PHF8; details: GST-tagged PHF8; sheet Array Heatmap; each array performed twice, total n = 4
In short: as §1

[16] = system: PHF23; details: GST-tagged PHF23; sheet Array Heatmap; each array performed twice, total n = 4
In short: as §1

[17] = system: BAZ2B; details: GST-tagged BAZ2B; sheet Array Heatmap; each array performed twice, total n = 4
In short: as §1

[18] = system: DPF2 (PPC2W2); details: GST-tagged DPF2 (PPC2W2 = Dual PHD + C2W2-type Zn-finger); sheet Array Heatmap; each array performed twice, total n = 4
In short: as §1

[19] = system: CHD5 (PCC); details: GST-tagged CHD5 (PCC = PHD + Dual Chromodomain); sheet Array Heatmap; each array performed twice, total n = 4
In short: as §1

[20] = system: KDM7A; details: GST-tagged KDM7A; sheet Array Heatmap; each array performed twice, total n = 4
In short: as §1

[21] = system: CHD5 (PPCC); details: GST-tagged CHD5 (PPCC = Dual PHD + Dual Chromodomain); sheet Array Heatmap; each array performed twice, total n = 4
In short: as §1

[22] = system: PHF21A; details: GST-tagged PHF21A; sheet Array Heatmap; each array performed twice, total n = 4
In short: as §1

[23] = system: RAG2; details: GST-tagged RAG2; sheet Array Heatmap; each array performed twice, total n = 4
In short: as §1

[24] = system: KDM5B (3); details: GST-tagged KDM5B (3); sheet Array Heatmap; each array performed twice, total n = 4
In short: as §1

[25] = system: TRIM66 (PB); details: GST-tagged TRIM66 (PB = PHD + Bromodomain); sheet Array Heatmap; each array performed twice, total n = 4
In short: as §1

[26] = system: KDM4C (TTP); details: GST-tagged KDM4C (TTP = Tandem Tudor domain + PHD); sheet Array Heatmap; each array performed twice, total n = 4
In short: as §1

[27] = system: MLL5; details: GST-tagged MLL5; sheet Array Heatmap; each array performed twice, total n = 4
In short: as §1

[28] = system: PHF2; details: GST-tagged PHF2; sheet Array Heatmap; each array performed twice, total n = 4
In short: as §1

[29] = system: KDM5A (1); details: GST-tagged KDM5A (1); sheet Array Heatmap; each array performed twice, total n = 4
In short: as §1

[30] = system: SP140L; details: GST-tagged SP140L; sheet Array Heatmap; each array performed twice, total n = 4
In short: as §1

[31] = system: CHD4 (PPCC); details: GST-tagged CHD4 (PPCC = Dual PHD + Dual Chromodomain); sheet Array Heatmap; each array performed twice, total n = 4
In short: as §1

For “H3K4ac + K9ac + S10p + K14ac + K18ac: H3 1-20”, the “Array Heatmap signal (histone peptide microarray)” value (“Array Heatmap signal” for short) [1] was 0.4935, the “Array Heatmap signal” value [2] was 0.3689 and the “Array Heatmap signal” value [3] was 0.2701. The “Array Heatmap signal” value [4] was 0.6478, the “Array Heatmap signal” value [5] was 0.429 and the “Array Heatmap signal” value [6] was 0.3888. For the same substance, the “Array Heatmap signal” value [7] was 0.4188, the “Array Heatmap signal” value [8] was 0.5779 and the “Array Heatmap signal” value [9] was 0.6753. For the same substance, the “Array Heatmap signal” value [10] was 0.5313, the “Array Heatmap signal” value [11] was 0.6482 and the “Array Heatmap signal” value [12] was 0.4823. The “Array Heatmap signal” value [13] was 0.3767, the “Array Heatmap signal” value [14] was 0.5295 and the “Array Heatmap signal” value [15] was 0.3899. For the same substance, the “Array Heatmap signal” value [16] was 0.5331, the “Array Heatmap signal” value [17] was 0.5889 and the “Array Heatmap signal” value [18] was 0.6938. The “Array Heatmap signal” value [19] was 0.8446, the “Array Heatmap signal” value [20] was 0.4698 and the “Array Heatmap signal” value [21] was 0.5941. For the same substance, the “Array Heatmap signal” value [22] was 0.4919, the “Array Heatmap signal” value [23] was 0.2541 and the “Array Heatmap signal” value [24] was 0.4819. The “Array Heatmap signal” value [25] was 0.6786, the “Array Heatmap signal” value [26] was 0.5421 and the “Array Heatmap signal” value [27] was 0.555. The “Array Heatmap signal” value [28] was 0.4731, the “Array Heatmap signal” value [29] was 0.5046 and the “Array Heatmap signal” value [30] was 0.3597. The “Array Heatmap signal” value [31] was 0.5822.

H3K4ac + K9ac: H3 1-20 was tested, and the “Array Heatmap signal” value [1] was 0.4565, the “Array Heatmap signal” value [2] was 0.3822 and the “Array Heatmap signal” value [3] was 0.3083. The “Array Heatmap signal” value [4] was 0.6807, the “Array Heatmap signal” value [5] was 0.6615 and the “Array Heatmap signal” value [6] was 0.3535. For the same substance, the “Array Heatmap signal” value [7] was 0.5679, the “Array Heatmap signal” value [8] was 0.6174 and the “Array Heatmap signal” value [9] was 0.6345. The “Array Heatmap signal” value [10] was 0.5202, the “Array Heatmap signal” value [11] was 0.5976 and the “Array Heatmap signal” value [12] was 0.4596. For the same substance, the “Array Heatmap signal” value [13] was 0.3754, the “Array Heatmap signal” value [14] was 0.5254 and the “Array Heatmap signal” value [15] was 0.3733. For the same substance, the “Array Heatmap signal” value [16] was 0.5225, the “Array Heatmap signal” value [17] was 0.5296 and the “Array Heatmap signal” value [18] was 0.6975. The “Array Heatmap signal” value [19] was 0.8893, the “Array Heatmap signal” value [20] was 0.4244 and the “Array Heatmap signal” value [21] was 0.5625. The “Array Heatmap signal” value [22] was 0.4614, the “Array Heatmap signal” value [23] was 0.2758 and the “Array Heatmap signal” value [24] was 0.6207. The “Array Heatmap signal” value [25] was 0.6641, the “Array Heatmap signal” value [26] was 0.5223 and the “Array Heatmap signal” value [27] was 0.5339. For the same substance, the “Array Heatmap signal” value [28] was 0.54, the “Array Heatmap signal” value [29] was 0.4969 and the “Array Heatmap signal” value [30] was 0.3499. The “Array Heatmap signal” value [31] was 0.558.
